In publication PMC11304739, “Identification of novel bromodomain inhibitors of Trypanosoma cruzi bromodomain factor 2 (TcBDF2) using a fluorescence polarization-based high-throughput assay” (Antimicrobial Agents and Chemotherapy, 2024):
Read-outs that look alike come from different tables or passages of the source. Each block holds one compound with its values, some of them ahead of it.

Tests used:
recombinant TcBD2 = recombinant TcBD2 (Trypanosoma cruzi, UniProt A0A2V2V5V1); assay: Thermal shift / differential scanning fluorimetry (DSF); format: binding
Experimental: Recombinant TcBD2 was buffered in 10 mM HEPES, pH 7.5, and 300 mM NaCl and assayed in a 96-well plate at a final concentration of 5 µM in a 25-µL volume. Compounds were added at a final concentration between 0.1 and 50 µM to calculate dissociation constants. SYPRO Orange was added as a fluorescence probe at a dilution of 1:10,000. Excitation and emission filters for the SYPRO Orange dye were set to 465 and 590 nm, respectively. The temperature was raised with a step of 2°C per minute from 25°C to 96°C, and fluorescence readings were taken at each interval in a real-time Bio-Rad Opus CFX. Data were analyzed as previously described ([22]).
Fig 3 Kd calculation using DSF. Six concentrations of each compound (compounds named 1 to 7 indicated on top of each graph) were used (from 0.1 to 50 µM), and the melting temperatures of TcBD2 with each concentration of compound obtained were used to calculate the Kds. DMSO was used as a control sample. All thermal shift assays were performed at least in triplicate with reproducibility of parameters within ±10%. The change of melting temperature versus the log of the ligand concentration was plotted and fitted as described in the Materials and Methods section.

TcBDF3 = tested on: TcBDF3; design: method as in PMID 27007774, PMID 35482332; details: cited from earlier work
Dm28c epimastigotes = details: cited from earlier work
TcBDF2 = tested on: TcBDF2; design: method as in PMID 27007774, PMID 35482332; details: cited from earlier work
LdBDF5 = tested on: LdBDF5; design: method as in PMID 37906637; details: different affinities for first or second BD; cited from earlier work
[1] = tested on: promastigotes from Leishmania mexicana; design: method as in PMID 37906637; details: cited from earlier work
LdBD5.1 = target: LdBD5.1; design: method as in PMID 37906637; details: cited from earlier work
[2] = tested on: asexual form of Plasmodium falciparum; design: method as in PMID 29631126; details: cited from earlier work
[3] = tested on: promastigotes from L. donovani; design: method as in PMID 37906637; details: cited from earlier work
first BD from TbBDF5 = tested on: first BD from TbBDF5; design: method as in PMID 29025975; details: cited from earlier work
procyclic T. brucei = tested on: procyclic T. brucei; design: method as in PMID 29025975; details: growth of procyclic T. brucei; cited from earlier work
TbBDF3 [4] = tested on: TbBDF3; design: method as in PMID 29025975; details: cited from earlier work
BD of TbBDF2 = target: BD of TbBDF2; design: method as in PMID 29025975; details: ITC; cited from earlier work
second BD of TbBDF5 = target: second BD of TbBDF5; design: method as in PMID 29025975; details: ITC; cited from earlier work
[5] = tested on: T. cruzi Dm28c epimastigotes expressing beta-galactosidase; assay: Beta-galactosidase expressing parasite assay (epimastigotes); format: cell-based; details: Trypanosoma cruzi, 72 h
Experimental: T. cruzi Dm28c which expresses the Escherichia coli LacZ gene was used ([31][–][33]). Epimastigotes were incubated with the compounds (50, 25, 12.5, 6.25, and 3.125 µM). After 72 hours of treatment, the assays were developed by the addition of Chlorophenol red-β-D-galactopyranoside (100 µM final concentration) and Nonidet P-40 (0.1% final concentration). Plates were incubated for 2 to 4 hours at 37°C. Wells with β-galactosidase activity turned the media from yellow to red, and this was quantitated by absorbance at 595 nm using a Synergy HTX multi-detection microplate reader as reported previously ([31]). Normalized survival percentage was plotted against concentrations on Prism 9.0 GraphPad software. DMSO 50% was used as the 0% survival baseline. Each concentration was assayed in triplicates.
Fig 4 Trypanocidal effect on epimastigotes expressing beta-galactosidase. Epimastigotes were incubated for 72 hours with each compound (named 1 to 6 and indicated on top of each graph) at five concentrations (3.12 to 50 µM). Beta-galactosidase activity was measured, and normalized survival was plotted vs. log concentration. For IC50 calculation of iBET151 and Benznidazole (BZN) (used as positive controls), six concentrations (from 1.56 to 100 µM) were plotted and the curves were fitted using GraphPad Prism 9.0 [non-linear regression: log(inhibitor) vs. response -- Variable slope (four parameters)]. […]

[6] = tested on: Toxoplasma tachyzoites infecting HFF cells; design: method as in PMID 32119930; details: cited from earlier work
TbBDF3 [7] = target: TbBDF3; design: method as in PMID 26646171, PMID 35642518; details: cited from earlier work
TbBDF2 = target: TbBDF2; design: method as in PMID 26646171, PMID 35642518; details: cited from earlier work
[8] = second round of experiments, six concentrations, read-out: IC50 (Figure S3, Kd calculation using DSF, second round of experiments)
[9] = thermal shift, compounds 0.1 to 50 µM, 5 µM TcBD2, read-out: Kd ± SD
[10] = read-out: IC50 against Dm28c epimastigotes

Chain of recombinant TcBD2 (A0A2V2V5V1 entry or part of it): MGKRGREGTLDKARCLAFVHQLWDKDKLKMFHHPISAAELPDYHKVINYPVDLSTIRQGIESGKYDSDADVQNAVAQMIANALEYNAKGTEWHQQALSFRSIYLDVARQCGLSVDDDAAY

Kd (recombinant TcBD2; [8]): 2.14 µM
Kd (recombinant TcBD2; [9]): 2.41 ± 0.32 µM
SMILES: Cc1cc(C(=O)NC2CCc3nccn3C2)c2c(C)noc2n1 (stereo not shown) [Compound 3]

SMILES: CCOC(=O)Nc1cc(-c2ccc(C)c(NS(C)(=O)=O)c2)nn2c(C)nnc12 [BSP, Bromosporine]
binding to TcBDF3 (TcBDF3): bind
IC50 (Dm28c epimastigotes; read-out: IC50 against parasites): > 50 µM
binding to TcBDF2 (TcBDF2): bind
binding to LdBDF5 (LdBDF5): binds

SMILES: COc1ccc(CCc2nc3cc(-c4c(C)noc4C)ccc3n2C[C@H](C)N2CCOCC2)cc1Cl [SGC-CBP30]
IC50 [1]: 7.16 µM
Kd (LdBD5.1): 0.281 µM
selectivity index ([2]; calculated using a human HEK 293 cell line): around 7
IC50 ([2]; in vitro): 3.2 µM
IC50 [3]: 6.16 µM
binding to LdBDF5 (LdBDF5): binds

SMILES: CCCOc1ccn2c(C(C)=O)cc(-c3ccccc3S(C)(=O)=O)c2c1 [GSK2801]
binding to first BD from TbBDF5 (first BD from TbBDF5): does not bind
IC50 (procyclic T. brucei): 1.37 µM
binding to TbBDF3 (TbBDF3 [4]): does not bind
Kd (BD of TbBDF2): 15 µM
Kd (second BD of TbBDF5): 83 µM

SMILES: O=C(Cn1ccnc1[N+](=O)[O-])NCc1ccccc1 [BZN, Benznidazole]
IC50 [5]: 19.8 µM

Kd (recombinant TcBD2; [8]): 1.55 µM
Kd (recombinant TcBD2; [9]): 1.33 ± 0.22 µM
SMILES: CCn1nnc2c(N3CC[C@H](N)C3)nc(C)nc21 [Compound 2]

Kd (recombinant TcBD2; [8]): 3.15 µM
Kd (recombinant TcBD2; [9]): 2.81 ± 0.31 µM
SMILES: CC(=O)Nc1nc(C)c(S(=O)(=O)Nc2cccc3nnc(C)cc23)s1 [Compound 7]

Kd (recombinant TcBD2; [8]): 3.11 µM
Kd (recombinant TcBD2; [9]): 3.31 ± 0.26 µM
SMILES: Cc1cc2c(NC(=O)c3ccccc3C(=O)O)cccc2nn1 [Compound 6]

SMILES: Cc1nnc2c3ccccc3c(N[C@@H](C)[C@H](c3ccccc3)N(C)C)nn12 [L-Moses]
IC50 [6]: ~0.6 µM

SMILES: COc1cc2c(cc1-c1c(C)noc1C)ncc1[nH]c(=O)n([C@H](C)c3ccccn3)c12 [iBET-151]
binding to TcBDF3 (TcBDF3): bind
IC50 [5]: 7.75 µM
IC50 (Dm28c epimastigotes; [10]): 6.35 µM
binding to TcBDF2 (TcBDF2): bind
Kd (TbBDF3 [7]): 175 µM
Kd (TbBDF2): 225 µM

SMILES: Cc1sc2c(c1C)C(c1ccc(Cl)cc1)=N[C@@H](CC(=O)OC(C)(C)C)c1nnc(C)n1-2 [JQ1(+)]
binding to TcBDF3 (TcBDF3): binds
IC50 (Dm28c epimastigotes; [10]): 7.14 µM
binding to TcBDF2 (TcBDF2): does not interact
binding to TbBDF3 (TbBDF3 [7]): do not bind at all
binding to TbBDF2 (TbBDF2): do not bind at all

Kd (recombinant TcBD2; [8]): 3.36 µM
Kd (recombinant TcBD2; [9]): 3.52 ± 0.12 µM
SMILES: Cc1cc2c(NS(=O)(=O)c3c(C)noc3C)cccc2nn1 [Compound 5]

Kd (recombinant TcBD2; [8]): 1.92 µM
Kd (recombinant TcBD2; [9]): 1.58 ± 0.42 µM
SMILES: Cc1cc2c(NC(=O)CC(C)(C)CC(=O)O)cccc2nn1 [Compound 4]

Kd (recombinant TcBD2; [8]): 1.89 µM
Kd (recombinant TcBD2; [9]): 1.91 ± 0.31 µM
SMILES: CCn1nnc2c(N3CC[C@@H](N)C3)nc(C)nc21 [Compound 1]

SMILES: CCn1cc(-c2cccc(C(F)(F)F)c2)c2sc(C(=N)NC3CCS(=O)(=O)CC3)cc2c1=O [I-BRD9]
binding to LdBDF5 (LdBDF5): binds
